Earlier results in US20110159084A1, “RALOXIFENE PHARMACEUTICAL FORMULATIONS” (DR. REDDY'S LABORATORIES LTD., priority 2008, published 2011).

Experiments:
[1] = 37° C.
[2] = in vivo

Cl.O=C(c1ccc(OCCN2CCCCC2)cc1)c1c(-c2ccc(O)cc2)sc2cc(O)ccc12 [Raloxifene hydrochloride, methanone, [6-hydroxy-2-(4-hydroxyphenyl)benzo[b]thiene-3-yl]-[4-[2-(1-piperidinyl)ethoxy]phenyl]-, hydrochloride]
solubility in simulated gastric fluid (SGF) USP ([1]; SGF USP): 3 µg/mL
solubility in simulated intestinal fluid (SIF) USP ([1]; SIF USP): 2 µg/mL
absolute bioavailability [2]: about 2%

Raloxifene
absolute bioavailability [2]: 2%
intra-subject pharmacokinetic variability [2]: approximately 30 % coefficient of variation
